Reference: patent US7285561B2, “Imidazo-substituted compounds as p38 kinase inhibitors” (Roche Palo Alto LLC, priority 2006, dated 2007)
Where a name gives a salt, the structure may show the parent alone.

Tests used:
p-38 MAP kinase = molecular target: T1, p-38 MAP kinase (Homo sapiens, UniProt Q16539); assay: Inhibition of p-38 (MAP) kinase, in vitro assay (transfer of γ-phosphate from γ-33P-ATP to Myelin Basic Protein); assay type: biochemical; settings: phosphorylated recombinant p38 MAP kinase; substrate MBP and γ-33P-ATP; 30° C.; read-out: IC50, the concentration causing 50% inhibition of the p-38 enzyme
T1 construct: made in house; host or cells: E. coli (co-expressed with SEK-1 and MEKK)
Procedure: The p-38 MAP kinase inhibitory activity of compounds of this invention in vitro was determined by measuring the transfer of the γ-phosphate from γ-^33P-ATP by p-38 kinase to Myelin Basic Protein (MBP), using the a minor modification of the method described in Ahn, N. G.; et al. J. of Biol. Chem. Vol. 266(7), 4220-4227, (1991)
The phosphorylated form of the recombinant p38 MAP kinase was expressed with SEK-1 and MEKK in E. Coli (see, Khokhlatchev, A. et al. J. of Biol. Chem. Vol. 272(17), 11057-11062, (1997) and then purified by affinity chromatography using a Nickel column.
The phosphorylated p38 MAP kinase was diluted in kinase buffer (20 mM 3-(N-morpholino)propanesulfonic acid, pH 7.2, 25 mM β-glycerol phosphate, 5 mM ethylene glycol-bis(beta-aminoethyl ether)-N,N,N′,N′-tetraacetic acid, 1 mM sodium vanadate, 1 mM dithiothreitol, 40 mM magnesium chloride). Test compound dissolved in DMSO or only DMSO (control) was added and the samples were incubated for 10 min. at 30° C. The kinase reaction was initiated by the addition of a substrate cocktail containing MBP and γ-^33P-ATP. After incubating for an additional 20 min. at 30° C., the reaction was terminated by adding 0.75% phosphoric acid. The phosphorylated MBP was then separated from the residual γ-^33P-ATP using a phosphocellulose membrane (Millipore, Bedford, Mass.) and quantitated using a scintillation counter (Packard, Meriden, Conn.).

T1 sequence (Q16539 whole entry): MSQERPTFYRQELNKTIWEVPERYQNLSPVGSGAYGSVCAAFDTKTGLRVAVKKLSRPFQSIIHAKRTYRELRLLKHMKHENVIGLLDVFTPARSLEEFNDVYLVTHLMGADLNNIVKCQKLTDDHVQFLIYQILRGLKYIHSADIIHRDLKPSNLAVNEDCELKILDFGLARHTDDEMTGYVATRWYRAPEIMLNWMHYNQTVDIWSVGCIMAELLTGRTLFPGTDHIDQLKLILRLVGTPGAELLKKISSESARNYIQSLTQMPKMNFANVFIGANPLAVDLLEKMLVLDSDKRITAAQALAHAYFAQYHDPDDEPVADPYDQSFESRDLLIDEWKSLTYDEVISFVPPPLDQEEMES

Row | SMILES | melting point [°C] | IC50 (p-38 MAP kinase) [nM]
1 | O=S1(=O)CCC(Nc2ncc3cc(-c4ccccc4Cl)c4nccn4c3n2)CC1 (as salt: HCl) [Compound 5] | 221.8 to 226.8 | 
2 | CC(C)(CO)Nc1ncc2cc(-c3ccccc3Cl)c3nccn3c2n1 [Compound 6] |  | 18.8
3 | CS(=O)(=O)N1CCC(Nc2ncc3cc(-c4ccccc4Cl)c4nccn4c3n2)CC1 (as salt: HCl) [Compound 3] | 188 to 194 | 
4 | CC(C)(CO)Nc1ncc2cc(-c3ccccc3Cl)c3nccn3c2n1 (as salt: HCl) [Compound 6] | 190.8 to 194.3 | 
5 | O[C@H]1CC[C@H](Nc2ncc3cc(-c4ccccc4Cl)c4nccn4c3n2)CC1 [Compound 1] | 116 to 119 | 10
6 | Clc1ccccc1-c1cc2cnc(NC3CCOCC3)nc2n2ccnc12 (as salt: HCl) [Compound 2] | 211 to 214 | 
7 | CS(=O)(=O)N1CCC(Nc2ncc3cc(-c4ccccc4Cl)c4nccn4c3n2)CC1 [Compound 3] |  | 2.7

Second part, the compound after the results:

Row | melting point [°C] | IC50 (p-38 MAP kinase) [nM] | SMILES
8 | 178 to 180 |  | Fc1ccc(CNc2ncc3cc(-c4ccccc4Cl)c4nccn4c3n2)cc1 (as salt: HCl) [Compound 8]
9 | 210 to 212.5 |  | CC(C)Nc1ncc2cc(-c3ccccc3Cl)c3nccn3c2n1 (as salt: HCl) [Compound 7]
10 | 172.2 to 176 |  | CS(=O)(=O)CCNc1ncc2cc(-c3ccccc3Cl)c3nccn3c2n1 (as salt: HCl) [Compound 9]
11 |  | 6620 | O[C@H]1CC[C@H](Nc2ncc3c(n2)N2CCN=C2N(c2ccccc2Cl)C3)CC1 [Compound 12]
12 | 169.3 to 175.8 | 1140 | O[C@H]1CC[C@H](Nc2ncc3c(n2)N2CCN=C2C(c2ccccc2Cl)=C3)CC1 [Compound 13]
13 |  | 1.4 | CC(C)Nc1ncc2cc(-c3ccccc3Cl)c3nccn3c2n1 [Compound 7]
